Experiment: Hydrolysis of 500 mg (0.5 grams) of compound in 50 mL buffer (pH 9 or pH 7) at 50 or 100° C.
Type: physicochemical
Description: Into a clean and dry 1 liter, 3 necked round bottom flask equipped with a nitrogen inlet was added 15 grams of triclosan in 150 ml of ethyl acetate. 15 ml of pyridine was added to the reaction mixture and the reaction mixture was left for stifling at room temperature for 10 minutes. To this stirring solution was added dropwise 24 grams of stearic acid glycolic acid chloride 27 dissolved in 30 ml of ethyl acetate and the reaction was left for stirring at room temperature for twenty four hours following which the […] salt was filtered off and the ethyl acetate layer was washed with 5% solution of sodium bicarbonate followed by drying using sodium sulphate. Ethyl acetate was distilled off using high vacuum distillation to yield 22 grams of crude 28. […]

[1] = 0.5 grams in 50 mL pH 9 buffer, 50° C.
[2] = 500 mg in 50 mL pH 9 buffer, 100° C.

| SMILES | extent of hydrolysis by TLC in 48 hours (0.5 grams in 50 mL pH 7 buffer, 50° C.) | extent of hydrolysis by TLC in 48 hours (0.5 grams in 50 mL pH 7 buffer, 100° C.) | time to hydrolysis (Hydrolyzed in) [1] | time to hydrolysis (Hydrolyzed in) [2] | extent of hydrolysis in 53 hours (0.5 grams in 50 mL pH 7 buffer, 100° C., 53 hours) |
| --- | --- | --- | --- | --- | --- |
| O=C(COc1ccc(OCC(=O)Oc2cc(Cl)ccc2Oc2ccc(Cl)cc2Cl)cc1)Oc1cc(Cl)ccc1Oc1ccc(Cl)cc1Cl [Compound 19, {4-[5-Chloro-2-(2,4-dichloro-phenoxy)-phenoxycarbonylmethoxy]-phenoxy}-acetic acid 5-chloro-2-(2,4-dichloro-phenoxy)-phenyl ester] | By TLC it hydrolyzed around 5% in 48 hours | By TLC it hydrolyzed around 15% in 48 hours | Hydrolyzed in 150 hours |  |  |
| O=C(COCCOc1ccc(OCCOCC(=O)Oc2cc(Cl)ccc2Oc2ccc(Cl)cc2Cl)cc1)Oc1cc(Cl)ccc1Oc1ccc(Cl)cc1Cl [Example 15, [2-(4-{2-[5-Chloro-2-(2,4-dichloro-phenoxy)-phenoxycarbonylmethoxy]-ethoxy}phenoxy)-ethoxy]-acetic acid 5-chloro-2-(2,4-dichloro-phenoxy)-phenyl ester] |  |  | Hydrolyzed in 150 hours |  |  |
| O=C(COCC(=O)Oc1cc(Cl)ccc1Oc1ccc(Cl)cc1Cl)Oc1cc(Cl)ccc1Oc1ccc(Cl)cc1Cl [Example 20] |  |  | Hydrolyzed in 102 hours | Hydrolyzed in 25 hours | Hydrolyzed 50% only in 53 hours |
| CCCCCCCCCCCCCCCCCC(=O)OCC(=O)Oc1cc(Cl)ccc1Oc1ccc(Cl)cc1Cl [Example 28, Triclosan Glycolic Acid Stearate] |  |  |  | 27 h |  |
